Patent publication US8772494B2, “N-aryl piperidine substituted biphenylcarboxamides as inhibitors of apolipoprotein b” (Janssen Pharmaceutica N.V., priority 2003, dated 2014)

Columns and labels:
[1] = target: MTP (Homo sapiens, UniProt P55157); experiment: MTP assay (triglyceride transfer from donor to acceptor vesicles); format: biochemical; conditions: MTP activity, percent triglyceride transfer, 37° C.; read-out: pIC50 values (= −log IC50 value) (converted)
Description: MTP activity was measured using an assay similar to one described by J. R. Wetterau and D. B. Zilversmit in Chemistry and Physics of Lipids, 38, 205-222 (1985). To prepare the donor and acceptor vesicles, the appropriate lipids in chloroform were put into a glass test tube and dried under a stream of N2. A buffer containing 15 mM Tris-HCl pH 7.5, 1 mM EDTA, 40 mM NaCl, 0.02% NaN3 (assay buffer) was added to the dried lipid. The mixture was vortexed briefly and the lipids were then allowed to hydrate for 20 min on ice. Vesicles were then prepared by bath sonication (Branson 2200) at room temperature for maximum 15 min. Butylated hydroxytoluene was included in all vesicle preparations at a concentration of 0.1%. The lipid transfer assay mixture contained donor vesicles (40 nmol phosphatidylcholine, 7.5 mol % of cardiolipin and 0.25 mol % glycerol tri [1-^14C]-oleate), acceptor vesicles (240 nmol phosphatidylcholine) and 5 mg BSA in a total volume of 675 μl in a 1.5 ml microcentrifuge tube. Test compounds were added dissolved in DMSO (0.13% final concentration). After 5 minutes of pre-incubation at 37° C., the reaction was started by the addition of MTP in 100 μl dialysis buffer. The reaction was stopped by the addition of 400 μl DEAE-52 cellulose pre-equilibrated in 15 mM Tris-HCl pH 7.5, 1 mM EDTA, 0.02% NaN3 (1:1, vol/vol). The mixture was agitated for 4 min and centrifuged for 2 min at maximum speed in an Eppendorf centrifuge (4° C.) to pellet the DEAE-52-bound donor vesicles. An aliquot of the supernatant containing the acceptor liposomes was counted and the [^14C]-counts were used to calculate the percent triglyceride transfer from donor to acceptor vesicles.
Resulting IC50 values are enumerated in Table C.2. When the calculated IC50 was below 7, not enough data points were available at the tested concentrations to calculate an IC50 value.

[2] = test system: ApoB secretion, HepG2 cells; experiment: Quantification of the secretion of ApoB; format: cell-based; conditions: Homo sapiens, 24 hours of incubation, secreted apoB immunoprecipitated, read-out: pIC50 values (= −log IC50 value) (converted)
Description: HepG2 cells were cultured in 24-well plates in MEM Rega 3 containing 10% fetal calf serum. At 70% confluency, the medium was changed and the test compound or carrier (DMSO, 0.4% final concentration) was added. After 24 hours of incubation, the medium was transferred to Eppendorf tubes and cleared by centrifugation. A sheep antibody directed against either apoB was added to the supernatant and the mixture was kept at 8° C. for 24 hours. Then, rabbit anti-sheep antibody was added and the immune complex was allowed to precipitate for 24 hours at 8° C. The immunoprecipitate was pelleted by centrifugation for 25 minutes at 1320 g and washed twice with a buffer containing 40 mM Mops, 40 mM NaH2PO4, 100 mM NaF, 0.2 mM DTT, 5 mM EDTA, 5 mM EGTA, 1% Triton-X-100, 0.5% sodium deoxycholate (DOC), 0.1% SDS, 0.2 μM leupeptin and 0.2 μM PMSF. Radioactivity in the pellet was quantified by liquid scintillation counting.
Resulting IC50 values are enumerated in Table C.1. When the calculated IC50 was below 6, not enough data points were available at the tested concentrations to calculate an IC50 value.

Chain of MTP (P55157 19-894, species assumed): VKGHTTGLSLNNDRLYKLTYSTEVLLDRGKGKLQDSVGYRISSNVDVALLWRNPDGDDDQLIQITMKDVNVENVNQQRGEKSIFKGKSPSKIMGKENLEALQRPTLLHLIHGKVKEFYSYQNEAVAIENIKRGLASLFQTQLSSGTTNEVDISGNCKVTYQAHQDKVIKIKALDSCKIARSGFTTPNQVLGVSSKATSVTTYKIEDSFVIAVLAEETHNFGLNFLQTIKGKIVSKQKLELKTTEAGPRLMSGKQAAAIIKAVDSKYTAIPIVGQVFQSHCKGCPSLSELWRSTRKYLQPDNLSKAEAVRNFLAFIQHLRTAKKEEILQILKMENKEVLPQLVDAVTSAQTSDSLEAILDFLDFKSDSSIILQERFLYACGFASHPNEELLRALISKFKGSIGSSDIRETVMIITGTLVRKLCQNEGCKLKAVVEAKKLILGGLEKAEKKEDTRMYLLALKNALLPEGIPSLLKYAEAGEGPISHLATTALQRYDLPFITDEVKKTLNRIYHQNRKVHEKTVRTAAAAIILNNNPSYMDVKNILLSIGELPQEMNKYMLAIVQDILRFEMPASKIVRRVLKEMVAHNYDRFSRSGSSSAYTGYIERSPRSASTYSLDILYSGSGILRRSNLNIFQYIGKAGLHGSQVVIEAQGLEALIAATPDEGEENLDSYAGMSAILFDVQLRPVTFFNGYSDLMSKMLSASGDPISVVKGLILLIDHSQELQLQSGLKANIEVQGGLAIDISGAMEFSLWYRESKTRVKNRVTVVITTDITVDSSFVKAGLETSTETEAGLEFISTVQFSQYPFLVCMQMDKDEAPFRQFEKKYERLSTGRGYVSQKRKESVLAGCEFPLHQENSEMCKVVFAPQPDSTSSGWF
Chain of MTP (P07237 18-508 partner, species assumed): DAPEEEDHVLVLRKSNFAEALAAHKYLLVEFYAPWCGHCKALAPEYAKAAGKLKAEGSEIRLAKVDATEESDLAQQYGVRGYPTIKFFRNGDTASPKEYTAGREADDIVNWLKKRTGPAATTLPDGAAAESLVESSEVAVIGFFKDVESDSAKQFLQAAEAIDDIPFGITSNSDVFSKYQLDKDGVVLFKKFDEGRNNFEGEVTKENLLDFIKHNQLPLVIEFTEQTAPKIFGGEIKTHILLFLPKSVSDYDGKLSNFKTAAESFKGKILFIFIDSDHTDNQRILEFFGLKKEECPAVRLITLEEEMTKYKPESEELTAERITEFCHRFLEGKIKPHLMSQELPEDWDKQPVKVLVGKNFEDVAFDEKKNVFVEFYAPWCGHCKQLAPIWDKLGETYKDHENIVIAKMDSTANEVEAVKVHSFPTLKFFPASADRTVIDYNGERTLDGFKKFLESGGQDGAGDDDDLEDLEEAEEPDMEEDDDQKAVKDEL

Row | SMILES | IC50 [1] | IC50 [2]
1 | CCOC(=O)[C@@H]1C[C@@H](O)CN1C(=O)CC1CCN(c2ccc(NC(=O)c3ccccc3-c3ccc(C(F)(F)F)cc3)cc2)CC1 [Compound 14] | > 100 nM | > 1000 nM
2 | CCOC(=O)[C@@H](NC(=O)CC1CCN(c2ccc(NC(=O)c3ccccc3-c3ccc(C(F)(F)F)cc3)cc2)CC1)C(C)C [Compound 19] | > 100 nM | 116 nM
3 | CCOC(=O)CN(C)C(=O)CC1CCN(c2ccc(NC(=O)c3ccccc3-c3ccc(C(F)(F)F)cc3)cc2)CC1 [Compound 33] | 69.5 nM | > 1000 nM
4 | CCOC(=O)CC(NC(=O)CC1CCN(c2ccc(NC(=O)c3ccccc3-c3ccc(C(F)(F)F)cc3)cc2)CC1)c1ccc2c(c1)OCO2 (stereo not shown) [Compound 8] | 20.1 nM | < 30 nM
5 | COC(=O)[C@H](Cc1c[nH]c2ccccc12)NC(=O)CC1CCN(c2ccc(NC(=O)c3cccc(C)c3-c3ccc(C(F)(F)F)cc3)cc2)CC1 [Compound 53] | 15.7 nM | 126 nM
6 | CCOC(=O)[C@@H](NC(=O)CC1CCN(c2ccc(NC(=O)c3ccccc3-c3ccc(C(F)(F)F)cc3)cc2)CC1)c1ccccc1 [Compound 22] | 8.93 nM | 54.8 nM

Now from value to compound:

Row | IC50 [1] | IC50 [2] | SMILES
7 | 3.42 nM | < 30 nM | CCOC(=O)[C@@H](C)NC(=O)CC1CCN(c2ccc(NC(=O)c3ccccc3-c3ccc(C(F)(F)F)cc3)cc2)CC1 [Compound 18]
8 | 5.01 nM | 44.8 nM | CCOC(=O)CNC(=O)CC1CCN(c2ccc(NC(=O)c3ccccc3-c3ccc(C(F)(F)F)cc3)cc2)CC1 [Compound 37]
9 | 5.6 nM | > 1000 nM | CCOC(=O)[C@H](C)NC(=O)CC1CCN(c2ccc(NC(=O)c3ccccc3-c3ccc(C(F)(F)F)cc3)cc2)CC1 [Compound 17]
10 | 14.9 nM | 152 nM | CCOC(=O)C(C)(C)NC(=O)CC1CCN(c2ccc(NC(=O)c3cccc(C)c3-c3ccc(C(F)(F)F)cc3)cc2)CC1 [Compound 42]
11 | 6.04 nM | 15.5 nM | CCNC(=O)COC(=O)CC1CCN(c2ccc(NC(=O)c3cccc(C)c3-c3ccc(C(F)(F)F)cc3)cc2)CC1 [Compound 51]
